Results as given in patent US20190183950A1, “COMMENSAL FUNGI AND COMPONENTS THEREOF FOR USE IN MODULATING IMMUNE RESPONSES” (priority 2017, published 2019).

Key:
C. albicans [1] = settings: mouse, in vivo
C. albicans [2] = experiment: Depletion of intestinal C. albicans with fluconazole in antibiotic cocktail treated mice; assay type: in vivo, mouse; settings: C. albicans mono-colonized mice, 10 days after adding fluconazole to antibiotic-supplemented drinking water
[3] = tested on: Th17 CD4+ T cells and circulating neutrophils; experiment: Systemic immune cell analysis (tetramer staining, cytokine production, IL-17RC, reactive oxygen) in colonized mice; settings: fluconazole treated colonized mice
Source text: Fluorophore- or biotin-conjugated antibodies used mouse cell analysis are as follows: anti-CD4 (GK1.5, eBioscience), anti-CD8a (53-6.7, eBioscience), anti-CD11b (M1/70, Biolegend), anti-CD11c (N418, Biolegend), anti-F4/80 (BM8, eBioscience), anti-B220 (RA3-6B2, Biolegend), anti-CD44 (IM7, Biolegend), anti-CD45 (30F11, invitrogen), anti-Ly6G (1A8, BD bioscience), anti-Ly6C (HK1.4, Biolegend), anti-Gr1 (RB6-8C5, eBioscience), anti-IL-17RC (polyclonal IgG, R&D Systems), anti-FOXP3 (FJK-16S, eBioscience), anti-RORγt (Q31-378, BD bioscience), anti-T-bet (4B10, Biolegend), anti-IFN-γ (XMG1.2, eBioscience), anti-IL17A (TC 11-18H10.1, Biolegend), anti-IL17F (9D3.1C8, Biolegend). Fluorophore-conjugated antibodies were used for human cell analysis are as follows: anti-CD4 (OKT4, eBioscience), anti-CD15 (H198, invitrogen), anti-CD16 (3G8, Biolegend), anti-IL-17A (eBio64DEC17, eBioscience), anti-IL17F (O33-782, BD Bioscience), anti-IL17RC (309822, R&D Systems) with staining in the presence of Human Fc block (BD Bioscience). […] Single cell suspensions from spleen and peripheral lymph nodes were stained with APC conjugated I-Ab:2W1S55-68 tetramer at room temperature for 60 minutes, and enriched using anti-APC antibody conjugated magnetic beads (Militenyi Biotec) as described (Moon et al., Immunity 27:203-213 (2007)). Samples were acquired using an FACSCanto (BD) cytometer and analyzed using FlowJo software (Tree Star).

influenza A virus = assay type: in vivo, mouse
[4] = tested on: allergic airway inflammation; experiment: House dust mite airway reactivity and inflammation; assay type: in vivo, mouse; settings: colonized mice, colonization eradicated with fluconazole
Method: Mice were anesthetized with ketamine/xylazine and hung by their front incisors on an angled stand. 100 μg house dust mite extract (Greer Laboratories) in 40 μL sterile saline was administered intratracheally. 10 days later, mice were challenged with the same amount of house dust mite extract. 48 hours after the second intratracheal challenge, airway resistance in response to inhaled methacholine (100 mg/mL) was measured using FlexiVent (SCIREQ). Saline perfused lungs were minced and digested with collagenase D (1 mg/mL) and DNAse (0.1 mg/mL) in DMEM media supplemented with 10% fetal bovine serum, 1% L-glutamine, 10 mM HEPES, 1% penicillin-streptomycin (Cellgro) for 30 minutes at 37° C. with gentle shaking (200 rpm). The tissue digest was then passed through a 70 μm filter to obtain single cell suspensions.

[5] = tested on: DSS induced intestinal injury; experiment: DSS induced intestinal injury (survival, colon length, permeability, histology); assay type: in vivo, mouse; settings: for susceptibility to DSS (mortality): antibiotic treated mice, intrarectal administration every other day from one day prior to DSS
C. albicans [6] = settings: mouse, in vivo; remark: listed apart in the source
NF-κB = experiment: RAW-Blue stimulation and quantification of NF-κB activity; assay type: cell-based, murine; settings: 500 μg/mL
Method: RAW-Blue cells (InvivoGen) cells are derived from the murine RAW 264.7 macrophages with chromosomal integration of a secreted embryonic alkaline phosphatase reporter construct induced by NF-κB. 5×10^4 RAW-Blue cells were seeded 24 hours prior to addition of the indicated blocking antibody. One hour thereafter, mannan (Sigma) was added at a final concentration of 500 μg/mL. Supernatants were collected after 24 hours to quantify NF-κB activity by colorimetric assay using QUANTI-Blue reagent (InvivoGen).

[7] = antibiotic treated mice, intrarectal administration

Molecule: OC(Cn1cncn1)(Cn1cncn1)c1ccc(F)cc1F [fluconazole]
- C. albicans intestinal colonization (C. albicans [1]): efficiently eliminates C. albicans intestinal colonization
- recoverable fungi in the feces (C. albicans [2]): rapidly declined to undetectable levels
- IL-17RC expression by circulating leukocyte and neutrophils [3]: similarly overturned
- RORγt expression by I-Ab:2W1S specific CD4+ T cells [3]: reduced to background levels
- expansion of circulating neutrophils [3]: similarly overturned
- neutrophil production of reactive oxygen species [3]: similarly overturned
- number of CD4+ T cells with commensal C. albicans I-Ab:2W1S specificity [3]: reduced to background levels
- IL-17A and IL-17F production by spleen and lymph node CD4+ T cells ([3]; heat-killed C. albicans stimulation): similarly overturned
- protection against influenza A (influenza A virus; mouse, in vivo): similarly overturned
- accumulation of RORγt+ and IL-17 producing CD4+ T cells in the lungs [4]: efficiently overturned
- airway responsiveness [4]: efficiently overturned
- survival and time-to-death after DSS challenge ([5]; mouse, in vivo): efficiently abolished the improved survival and delayed time-to-death
- fungal pathogen burden in the kidney after intravenous infection (C. albicans [6]): significantly increased fungal pathogen burden in the kidney

Molecule: curdlan
- susceptibility to DSS (mortality) [5]: failed to improve mortality

Molecule: mannan
- survival and accumulation of protective immune cells (influenza A virus; [7]): restored to levels comparable to C. albicans colonized controls
- susceptibility to influenza A virus infection (influenza A virus; [7]): mitigated
- susceptibility to DSS (mortality) [5]: mitigated
- mannan stimulated cell activation (NF-κB; with antibody blockade against TLR2): not significantly impacted
- mannan stimulated cell activation (NF-κB; with antibody blockade against dectin-2): not significantly impacted
- mannan stimulated cell activation (NF-κB; with antibody blockade against the mannose receptor): not significantly impacted
- mannan induced NF-κB (NF-κB; with neutralization of TLR4): significantly reduced
- mannan induced NF-κB (NF-κB; with neutralization of dectin-1): significantly reduced
